Test results published in patent US11865125B2, “APKC inhibitors and methods of treating a neurodegenerative disease or disorder” (UNIVERSITY OF SOUTH FLORIDA, priority 2016, dated 2024).
Entries after “also recorded” stand apart in the source; their conditions may differ.

Tests used:
Akt = Akt activity in LA1-5s neuroblastoma cells; format: cell-based, human; conditions: LA1-5s cells, 200 nM insulin
Experimental: Relative bar values in panel a are mean±SEM of 6 determinations. Asterisks: *, P<0.05; **, P<0.01; ***, P<0.001 (ANOVA). Values in panel b are means of 2-4 determinations.
Shown here are Mean±SEM (N=4) values relative to the mean initial basal or insulin-stimulated level of indicated immunoreactive protein/peptide. Asterisks: *, P<0.05; **, P<0.01; ***, P<0.001 (ANOVA).
(§1) Western Analyses. As described, Western analyses were conducted with rabbit antisera or mouse monoclonal antibodies (mMab), using: anti-aPKC (Santa Cruz Biotechnologies, Santa Cruz, CA); anti-phospho-threonine-560/555-PKC-ζ/λ/ι (Invitrogen, Carlsbad, CA); anti-p-serine-256-FoxO1 and anti-FoxO1 (Abnova, Walnut, CA); anti-Akt (mMab), anti-phospho-serine-473-Akt, anti-phospho-serine-9-GSK3P anti-GSK313, anti-phospho-serine-253-FoxO3a, anti-FoxO3a, anti-phospho-serine-256-FoxO1, anti-phospho-serine-193-FoxO4; anti-FoxO1, anti-phospho-serine-2448-mTOR, anti-mTOR, anti-β-amyloid (anti-5-10 kDa-Aβ1-40/42) and anti-amyloid precursor protein (anti-120 kDa-APP) (Cell Signaling Technologies, Danvers, MA); and anti-phospho-serine-202-tau, anti-phospho-threonine-231-tau (Gene Tex, Irvine, CA). Samples from experimental groups were compared on the same blots, and routinely checked with loading controls. Note that: insulin-sensitive 70 kDa aPKC is largely PKC-ζ in mouse brain and orthologous PKC-ι (98% aa homology) in monkey and other primate brains; brain PKC-ζ exists largely as a 50 kDa moiety that, lacking a regulatory domain, is constitutively-active and unresponsive to insulin.

recombinant PKC-ι = molecular target: T1, recombinant PKC-ι (Homo sapiens, UniProt P41743); conditions: cited from earlier work
T1 sequence (P41743 1-596): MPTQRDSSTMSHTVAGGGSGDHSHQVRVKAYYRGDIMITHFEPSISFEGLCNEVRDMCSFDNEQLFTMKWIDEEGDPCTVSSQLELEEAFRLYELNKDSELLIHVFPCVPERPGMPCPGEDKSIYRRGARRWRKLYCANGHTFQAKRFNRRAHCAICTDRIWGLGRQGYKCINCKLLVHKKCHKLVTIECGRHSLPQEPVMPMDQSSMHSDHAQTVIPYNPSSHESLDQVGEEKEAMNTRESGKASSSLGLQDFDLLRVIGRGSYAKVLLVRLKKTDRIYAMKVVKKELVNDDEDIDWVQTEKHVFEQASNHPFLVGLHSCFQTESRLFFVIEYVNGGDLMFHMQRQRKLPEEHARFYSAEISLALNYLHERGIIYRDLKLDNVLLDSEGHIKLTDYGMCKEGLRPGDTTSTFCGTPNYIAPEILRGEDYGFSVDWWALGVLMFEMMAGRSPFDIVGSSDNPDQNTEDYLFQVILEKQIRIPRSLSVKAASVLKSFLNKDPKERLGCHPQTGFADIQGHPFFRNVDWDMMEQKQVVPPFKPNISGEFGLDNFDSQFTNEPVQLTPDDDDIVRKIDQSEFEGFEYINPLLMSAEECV

70 kDa PKC-λ/ι = molecular target: T2, 70 kDa PKC-λ/ι (Mus musculus, UniProt Q62074); experiment: brain aPKC (PKC-λ/ι) phosphorylation/activity in mice; format: in vivo
T2 construct: insulin-sensitive 70 kDa PKC-λ/ι in brains of Het-MλKO mice; from tissue; host or cells: mouse brain homogenate
T2 sequence (Q62074 1-595): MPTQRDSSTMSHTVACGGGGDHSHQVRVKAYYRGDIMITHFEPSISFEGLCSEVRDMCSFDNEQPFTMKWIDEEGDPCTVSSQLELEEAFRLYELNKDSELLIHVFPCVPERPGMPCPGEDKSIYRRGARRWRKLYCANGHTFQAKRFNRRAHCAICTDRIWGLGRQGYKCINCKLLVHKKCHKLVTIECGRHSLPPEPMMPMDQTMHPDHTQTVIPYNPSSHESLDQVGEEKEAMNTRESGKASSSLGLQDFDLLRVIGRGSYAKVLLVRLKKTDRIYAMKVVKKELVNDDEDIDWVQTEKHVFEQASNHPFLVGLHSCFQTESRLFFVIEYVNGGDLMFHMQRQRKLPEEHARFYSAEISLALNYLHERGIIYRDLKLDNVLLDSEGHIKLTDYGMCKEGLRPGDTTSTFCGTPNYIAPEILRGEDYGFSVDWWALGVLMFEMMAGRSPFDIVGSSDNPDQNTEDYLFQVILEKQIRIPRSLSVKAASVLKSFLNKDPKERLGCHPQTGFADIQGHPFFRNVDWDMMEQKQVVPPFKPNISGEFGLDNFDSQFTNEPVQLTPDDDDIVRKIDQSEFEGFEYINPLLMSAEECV
Excerpt: Mouse Studies. Brain samples were obtained from normal and insulin-resistant mice and monkeys used previously, and includes mice originally used in studies of insulin signaling and resistance in liver: (a) 4-6 month old C57Bl/6 mice used in studies of high-fat-feeding [USF Vivarium] [6]; 4-6 month-old male C57Bl/6 ob/ob and lean ob+ mice (Jackson Labs, Bar Harbor, Maine); and (c) 10-12 month-old C57Bl/6 Het-MλKO mice [USF Vivarium] [8]. […] Where indicated normal mice were given a single SC injection of saline or saline containing 1.5 mg/kg ICAPP to follow time-related alterations in brain signaling factors. Where indicated, mice were treated intraperitoneally (IP) with insulin (1 U/kg body weight) or vehicle 15-min before euthanization by administration of Xylazine/Ketamine, followed by whole body perfusion with phosphate-buffered saline and rapid removal of brain and other tissues.
Tissue Preparations. As described, mouse brains were hemisected sagittally, and one-half was frozen in liquid N2, stored at −80° C., and samples thereof were homogenized in buffer containing 0.25M sucrose, 20 mM Tris/HCl (pH, 7.5), 2 mmol/l EGTA, 2 mM EDTA, 1 mM phenlysulfonoylfluoride (PMSF), 20 μg/ml leupeptin, 10 μg/ml aprotinin, 2 mM Na4P2O7, 2 mM Na3VO4, 2 mM NaF, and 1 μM microcystin, and then supplemented with 1% TritonX-100, 0.6% Nonidet and 150 mM NaCl.
as §1
Where indicated, mice were randomly treated with insulin (1 unit/kg/bw i.p.) 15 min before being euthanized by administration of xylazine/ketamine, followed by whole-body perfusion with PBS and rapid removal of brain and other tissues.

Q: What does the source list for NC(=O)c1ncn([C@@H]2C[C@H](COP(=O)(O)O)[C@@H](O)[C@H]2O)c1N [ICAPP]?
A: effect on stimulatory effects of insulin on Akt activity (Akt): without altering; inhibition of recombinant PKC-ι (recombinant PKC-ι): preferentially inhibit recombinant PKC-ι; IC50 (recombinant PKC-ι; previously seen, stated as similar, read-out: IC50, inhibition of recombinant PKC-λ/ι): 1 to 10 nM; resting/basal brain aPKC (PKC-λ/ι) activity (70 kDa PKC-λ/ι; Het-MλKO mice, s.c. once daily for 8 days (ICAPP 0.4 mg/kg, ATM 60 mg/kg)): diminished; also recorded: reductions of resting/basal activities of brain Akt and aPKC, comparable to those seen with ATM treatment; acute insulin activation of brain aPKC (PKC-λ/ι) (70 kDa PKC-λ/ι; Het-MλKO mice, s.c. once daily for 8 days (ICAPP 0.4 mg/kg, ATM 60 mg/kg), insulin 1 U/kg i.p. 15 min): blocked the ability of insulin to activate PKC-λ/ι; also recorded: abrogated; insulin-dependent brain PKC-λ/ι (aPKC) activity (70 kDa PKC-λ/ι; normal mice, single s.c. dose of ICAPP 1.5 mg/kg, insulin 1 U/kg i.p. 15 min before killing): time-related, well-correlated decreases; also recorded: blocked acute effects of insulin
